According to ChEMBL document CHEMBL4177526, “Discovery and structure activity relationship of the first potent cryptosporidium FIKK kinase inhibitor” (Bioorg Med Chem, 2017):

Assays:
Cryptosporidium parvum = experiment: Inhibition of recombinant Cryptosporidium parvum FIKK assessed as change in melting temperature at 50 uM by differential static light scattering method
[1] = biological target: Mitogen-activated protein kinase 8 (Homo sapiens) (UniProt P45983); experiment: Inhibition of human JNK1 (1 to 384 residues) assessed as residual activity at 500 nM in presence of 33P-ATP by filter binding assay relative to control
Chain of Mitogen-activated protein kinase 8 (Homo sapiens) (P45983 whole entry, the tested form may be a part): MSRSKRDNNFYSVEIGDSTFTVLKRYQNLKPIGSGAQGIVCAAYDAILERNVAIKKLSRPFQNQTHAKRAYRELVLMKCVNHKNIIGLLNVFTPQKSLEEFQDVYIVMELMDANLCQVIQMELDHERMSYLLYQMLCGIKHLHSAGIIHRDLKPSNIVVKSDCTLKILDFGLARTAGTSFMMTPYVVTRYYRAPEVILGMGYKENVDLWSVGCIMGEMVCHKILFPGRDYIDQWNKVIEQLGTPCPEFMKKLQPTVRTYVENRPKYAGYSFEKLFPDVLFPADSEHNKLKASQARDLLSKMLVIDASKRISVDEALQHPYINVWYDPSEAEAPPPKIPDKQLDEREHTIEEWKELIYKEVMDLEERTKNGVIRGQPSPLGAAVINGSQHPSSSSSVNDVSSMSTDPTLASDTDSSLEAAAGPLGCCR

[2] = biological target: Mitogen-activated protein kinase 12 (Homo sapiens) (UniProt P53778); experiment: Inhibition of human p38gamma (1 to 367 residues) assessed as residual activity at 500 nM in presence of 33P-ATP by filter binding assay relative to control
[3] = biological target: cAMP-dependent protein kinase catalytic subunit alpha (Homo sapiens) (UniProt P17612); experiment: Inhibition of human PKAalpha (2 to 351 residues) assessed as residual activity at 500 nM in presence of 33P-ATP by filter binding assay relative to control
[4] = biological target: Serine/threonine-protein kinase PLK1 (Homo sapiens) (UniProt P53350); experiment: Inhibition of human PLK1 (1 to 603 residues) assessed as residual activity at 500 nM in presence of 33P-ATP by filter binding assay relative to control
[5] = biological target: Insulin receptor (Homo sapiens) (UniProt P06213); experiment: Inhibition of human IR (1001 to 1382 residues) assessed as residual activity at 500 nM in presence of 33P-ATP by filter binding assay relative to control
Chain of Insulin receptor (Homo sapiens) (P06213 28-758 limits assumed): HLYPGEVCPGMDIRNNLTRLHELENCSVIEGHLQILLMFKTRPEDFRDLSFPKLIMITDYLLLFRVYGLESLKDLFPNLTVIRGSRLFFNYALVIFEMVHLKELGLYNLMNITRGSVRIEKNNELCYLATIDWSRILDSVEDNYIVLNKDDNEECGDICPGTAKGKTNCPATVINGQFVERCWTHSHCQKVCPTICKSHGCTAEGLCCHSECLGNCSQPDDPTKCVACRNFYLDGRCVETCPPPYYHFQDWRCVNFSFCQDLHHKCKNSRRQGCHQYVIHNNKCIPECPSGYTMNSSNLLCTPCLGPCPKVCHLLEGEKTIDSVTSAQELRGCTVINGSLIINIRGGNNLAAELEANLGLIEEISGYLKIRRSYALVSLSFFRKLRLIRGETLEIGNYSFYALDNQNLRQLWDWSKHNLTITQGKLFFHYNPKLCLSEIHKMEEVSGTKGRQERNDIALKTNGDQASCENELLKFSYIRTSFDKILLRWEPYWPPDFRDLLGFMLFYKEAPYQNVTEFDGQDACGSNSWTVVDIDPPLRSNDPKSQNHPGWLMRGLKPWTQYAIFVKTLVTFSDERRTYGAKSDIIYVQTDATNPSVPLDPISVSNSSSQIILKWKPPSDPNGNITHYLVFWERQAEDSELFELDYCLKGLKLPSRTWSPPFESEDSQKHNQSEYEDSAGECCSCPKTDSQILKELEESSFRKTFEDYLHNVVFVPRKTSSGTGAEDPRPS
Chain of Insulin receptor (Homo sapiens) (P06213 763-1382 limits assumed): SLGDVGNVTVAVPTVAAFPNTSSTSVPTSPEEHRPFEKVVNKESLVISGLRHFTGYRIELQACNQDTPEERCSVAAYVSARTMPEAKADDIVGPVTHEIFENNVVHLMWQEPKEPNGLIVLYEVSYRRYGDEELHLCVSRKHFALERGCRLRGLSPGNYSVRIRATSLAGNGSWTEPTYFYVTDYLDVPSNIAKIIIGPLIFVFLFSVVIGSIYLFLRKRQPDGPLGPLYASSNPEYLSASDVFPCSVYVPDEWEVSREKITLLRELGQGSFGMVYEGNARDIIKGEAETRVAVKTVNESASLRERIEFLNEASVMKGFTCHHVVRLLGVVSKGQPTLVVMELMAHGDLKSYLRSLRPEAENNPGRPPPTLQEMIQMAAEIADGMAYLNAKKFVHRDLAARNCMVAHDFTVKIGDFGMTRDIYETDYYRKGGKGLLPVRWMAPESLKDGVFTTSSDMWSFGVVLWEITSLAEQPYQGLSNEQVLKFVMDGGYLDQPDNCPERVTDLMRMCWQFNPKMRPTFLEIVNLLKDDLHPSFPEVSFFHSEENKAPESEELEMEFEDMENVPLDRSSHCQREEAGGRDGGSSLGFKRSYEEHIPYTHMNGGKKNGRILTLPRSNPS

[6] = biological target: Calcium/calmodulin-dependent protein kinase type 1 (Homo sapiens) (UniProt Q14012); experiment: Inhibition of human CAMK1 (2 to 369 residues) assessed as residual activity at 500 nM in presence of 33P-ATP by filter binding assay relative to control
Chain of Calcium/calmodulin-dependent protein kinase type 1 (Homo sapiens) (Q14012 whole entry, looked up, the tested form may be a part): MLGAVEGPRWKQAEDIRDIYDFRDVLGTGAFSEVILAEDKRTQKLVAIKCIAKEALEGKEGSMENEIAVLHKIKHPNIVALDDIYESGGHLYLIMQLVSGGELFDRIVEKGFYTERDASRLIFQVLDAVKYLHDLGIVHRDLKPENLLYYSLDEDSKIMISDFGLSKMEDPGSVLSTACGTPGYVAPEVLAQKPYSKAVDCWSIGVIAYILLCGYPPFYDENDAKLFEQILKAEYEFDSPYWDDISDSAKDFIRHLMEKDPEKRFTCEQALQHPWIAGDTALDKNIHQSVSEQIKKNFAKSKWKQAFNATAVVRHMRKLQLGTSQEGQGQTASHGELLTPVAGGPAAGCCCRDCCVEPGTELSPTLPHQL

[7] = biological target: Tau-tubulin kinase 1 (Homo sapiens) (UniProt Q5TCY1); experiment: Inhibition of human TTBK1 (1 to 1321 residues) assessed as residual activity at 500 nM in presence of 33P-ATP by filter binding assay relative to control
[8] = biological target: Serine/threonine-protein kinase BRSK1 (Homo sapiens) (UniProt Q8TDC3); experiment: Inhibition of human BRSK1 (2 to 778 residues) assessed as residual activity at 500 nM in presence of 33P-ATP by filter binding assay relative to control
[9] = biological target: Ephrin type-B receptor 1 (Homo sapiens) (UniProt P54762); experiment: Inhibition of human EPHB1 (565 to 984 residues) assessed as residual activity at 500 nM in presence of 33P-ATP by filter binding assay relative to control
[10] = biological target: Interleukin-1 receptor-associated kinase 1 (Homo sapiens) (UniProt P51617); experiment: Inhibition of human IRAK1 (1 to 712 residues) assessed as residual activity at 500 nM in presence of 33P-ATP by filter binding assay relative to control
[11] = biological target: Mitogen-activated protein kinase 3 (Homo sapiens) (UniProt P27361); experiment: Inhibition of human ERK1 (2 to 379 residues) assessed as residual activity at 500 nM in presence of 33P-ATP by filter binding assay relative to control
Chain of Mitogen-activated protein kinase 3 (Homo sapiens) (P27361 whole entry, the tested form may be a part): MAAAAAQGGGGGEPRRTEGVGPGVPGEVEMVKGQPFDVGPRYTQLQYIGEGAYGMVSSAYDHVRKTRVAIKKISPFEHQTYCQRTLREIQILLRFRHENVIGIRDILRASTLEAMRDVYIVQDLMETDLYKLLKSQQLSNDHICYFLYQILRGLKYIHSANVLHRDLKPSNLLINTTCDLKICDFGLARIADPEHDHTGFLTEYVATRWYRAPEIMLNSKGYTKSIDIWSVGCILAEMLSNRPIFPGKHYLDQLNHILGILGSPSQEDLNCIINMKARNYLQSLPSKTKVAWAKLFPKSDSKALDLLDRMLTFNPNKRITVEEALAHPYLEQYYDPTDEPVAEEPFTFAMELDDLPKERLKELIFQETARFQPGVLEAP

[12] = biological target: Tyrosine-protein kinase BTK (Homo sapiens) (UniProt Q06187); experiment: Inhibition of human BTK (2 to 659 residues) assessed as residual activity at 500 nM in presence of 33P-ATP by filter binding assay relative to control
[13] = biological target: Protein kinase C gamma type (Homo sapiens) (UniProt P05129); experiment: Inhibition of human PKCgamma (1 to 697 residues) assessed as residual activity at 500 nM in presence of 33P-ATP by filter binding assay relative to control
[14] = biological target: Serine/threonine-protein kinase STK11 (Homo sapiens) (UniProt Q15831); experiment: Inhibition of human LKB1 (1 to 433 residues) assessed as residual activity at 500 nM in presence of 33P-ATP by filter binding assay relative to control
Chain of Serine/threonine-protein kinase STK11 (Homo sapiens) (Q15831 whole entry, the tested form may be a part): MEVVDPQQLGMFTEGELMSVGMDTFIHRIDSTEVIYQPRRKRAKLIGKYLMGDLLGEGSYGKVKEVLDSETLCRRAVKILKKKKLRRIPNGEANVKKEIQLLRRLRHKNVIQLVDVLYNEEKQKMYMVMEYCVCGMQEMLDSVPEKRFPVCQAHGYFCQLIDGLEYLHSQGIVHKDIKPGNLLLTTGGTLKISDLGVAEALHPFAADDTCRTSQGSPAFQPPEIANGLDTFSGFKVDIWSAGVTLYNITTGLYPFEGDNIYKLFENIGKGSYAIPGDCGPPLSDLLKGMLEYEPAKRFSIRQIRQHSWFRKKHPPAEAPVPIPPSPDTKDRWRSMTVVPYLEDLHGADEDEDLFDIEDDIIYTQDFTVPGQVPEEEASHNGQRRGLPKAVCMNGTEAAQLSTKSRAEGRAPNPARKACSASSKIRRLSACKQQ

[15] = biological target: Mitogen-activated protein kinase 7 (Homo sapiens) (UniProt Q13164); experiment: Inhibition of human ERK5 (1 to 816 residues) assessed as residual activity at 500 nM in presence of 33P-ATP by filter binding assay relative to control
Chain of Mitogen-activated protein kinase 7 (Homo sapiens) (Q13164 2-816 limits assumed): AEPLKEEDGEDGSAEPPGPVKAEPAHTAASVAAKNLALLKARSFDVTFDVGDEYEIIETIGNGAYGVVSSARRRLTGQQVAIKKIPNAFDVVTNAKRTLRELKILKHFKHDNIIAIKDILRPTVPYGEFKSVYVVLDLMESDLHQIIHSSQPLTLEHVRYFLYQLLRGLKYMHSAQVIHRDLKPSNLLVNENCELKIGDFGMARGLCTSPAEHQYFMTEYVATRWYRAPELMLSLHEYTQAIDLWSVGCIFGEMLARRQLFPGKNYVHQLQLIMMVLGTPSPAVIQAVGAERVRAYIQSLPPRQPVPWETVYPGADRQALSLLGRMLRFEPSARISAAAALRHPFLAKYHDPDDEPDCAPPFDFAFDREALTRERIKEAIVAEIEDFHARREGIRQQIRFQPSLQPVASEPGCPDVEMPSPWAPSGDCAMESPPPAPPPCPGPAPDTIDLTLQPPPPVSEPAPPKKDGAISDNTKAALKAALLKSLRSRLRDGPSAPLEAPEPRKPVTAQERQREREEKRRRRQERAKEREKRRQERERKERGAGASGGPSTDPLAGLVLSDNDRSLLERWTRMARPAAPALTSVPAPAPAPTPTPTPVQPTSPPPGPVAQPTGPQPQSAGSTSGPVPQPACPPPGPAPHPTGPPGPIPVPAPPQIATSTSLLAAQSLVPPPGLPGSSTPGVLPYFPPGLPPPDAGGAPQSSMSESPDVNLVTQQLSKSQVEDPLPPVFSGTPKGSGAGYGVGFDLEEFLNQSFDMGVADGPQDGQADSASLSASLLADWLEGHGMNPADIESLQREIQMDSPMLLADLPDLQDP

[16] = biological target: Ephrin type-B receptor 2 (Homo sapiens) (UniProt P29323); experiment: Inhibition of human EPHB2 (560 to 987 residues) assessed as residual activity at 500 nM in presence of 33P-ATP by filter binding assay relative to control
[17] = biological target: Insulin receptor-related protein (Homo sapiens) (UniProt P14616); experiment: Inhibition of human IRR (944 to 1236 residues) assessed as residual activity at 500 nM in presence of 33P-ATP by filter binding assay relative to control
[18] = biological target: Maternal embryonic leucine zipper kinase (Homo sapiens) (UniProt Q14680); experiment: Inhibition of human MELK (2 to 651 residues) assessed as residual activity at 500 nM in presence of 33P-ATP by filter binding assay relative to control
[19] = biological target: Discoidin domain-containing receptor 2 (Homo sapiens) (UniProt Q16832); experiment: Inhibition of human DDR2 (467 to 854 residues) assessed as residual activity at 500 nM in presence of 33P-ATP by filter binding assay relative to control
[20] = biological target: Proto-oncogene tyrosine-protein kinase LCK (Mus musculus) (UniProt P06240); experiment: Inhibition of mouse LCK (2 to 509 residues) assessed as residual activity at 500 nM in presence of 33P-ATP by filter binding assay relative to control
Chain of Proto-oncogene tyrosine-protein kinase LCK (Mus musculus) (P06240 2-509 limits assumed): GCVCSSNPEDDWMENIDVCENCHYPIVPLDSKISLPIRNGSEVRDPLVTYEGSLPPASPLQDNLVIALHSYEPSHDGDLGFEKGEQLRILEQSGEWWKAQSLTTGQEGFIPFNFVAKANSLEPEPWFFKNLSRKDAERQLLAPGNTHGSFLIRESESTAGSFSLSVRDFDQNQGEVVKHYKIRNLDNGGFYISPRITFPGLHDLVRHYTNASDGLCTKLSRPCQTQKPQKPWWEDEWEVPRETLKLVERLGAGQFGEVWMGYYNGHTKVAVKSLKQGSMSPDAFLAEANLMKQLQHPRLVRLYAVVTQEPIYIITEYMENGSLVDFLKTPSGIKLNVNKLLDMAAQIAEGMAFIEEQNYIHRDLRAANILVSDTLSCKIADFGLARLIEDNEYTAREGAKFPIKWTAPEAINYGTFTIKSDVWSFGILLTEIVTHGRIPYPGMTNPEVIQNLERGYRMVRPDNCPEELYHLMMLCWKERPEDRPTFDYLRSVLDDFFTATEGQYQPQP

[21] = biological target: Tyrosine-protein kinase ABL1 (Homo sapiens) (UniProt P00519); experiment: Inhibition of human ABL (118 to 535 residues) assessed as residual activity at 500 nM in presence of 33P-ATP by filter binding assay relative to control
[22] = biological target: Misshapen-like kinase 1 (Homo sapiens) (UniProt Q8N4C8); experiment: Inhibition of human MINK1 (1 to 320 residues) assessed as residual activity at 500 nM in presence of 33P-ATP by filter binding assay relative to control
TAK1/TAB1 (Homo sapiens) [23] = biological target: T1, TAK1/TAB1 (Homo sapiens) (UniProt Q15750+O43318); experiment: Inhibition of human TAK1 (1 to 303 residues)/TAB1 (437 to 504 residues) assessed as residual activity at 500 nM in presence of 33P-ATP by filter binding assay relative to control; assay type: protein-complex assay
TAK1/TAB1 (Homo sapiens) [24] = biological target: T1, TAK1/TAB1 (Homo sapiens); experiment: Inhibition of human TAK1 (1 to 303 residues)/TAB1 (437 to 504 residues) at 500 nM in presence of 33P-ATP by filter binding assay relative to control; assay type: protein-complex assay
[25] = Ratio of EC50 for antiparasitic activity against Cryptosporidium parvum Iowa oocysts infected in human HCT8 cells to IC50 for Cryptosporidium parvum CDPK1; assay type: functional
[26] = biological target: serine/threonine-protein kinase D1 (Homo sapiens) (UniProt Q15139); experiment: Inhibition of human PKD1 (2 to 912 residues) at 500 nM in presence of 33P-ATP by filter binding assay relative to control

With Cc1cccc(-c2nc(N)sc2-c2ccc3ncccc3n2)c1 the ΔTm (Cryptosporidium parvum) was 5.2 °C, the Activity [1] was 134% and the Activity [2] was 116%. For the same compound, the Activity [3] was 115%, the Activity [4] was 107% and the Activity [5] was 115%. It also gave an Activity [6] of 112%, an Activity [7] of 112% and an Activity [8] of 111%. The Activity [9] was 110%, the Activity [10] was 109% and the Activity [11] was 106%. It also gave an Activity [12] of 105%, an Activity [13] of 103% and an Activity [14] of 101%. The Activity [15] was 100%, the Activity [16] was 95% and the Activity [17] was 94%. The Activity [18] was 91%, the Activity [19] was 91% and the Activity [20] was 85%. It also gave an Activity [21] of 81%, an Activity [22] of 74% and an Activity (TAK1/TAB1 (Homo sapiens) [23]) of 40%. It also gave an inhibition (TAK1/TAB1 (Homo sapiens) [24]) of 60%, a Ratio [25] of 14 and an inhibition [26] of 91%.
